# Data taken from US5538993A, “Certain tetrahydrocannabinol-7-oic acid derivatives” (priority 1991, dated 1996).
# Assays:
# [1] = tested on: mouse hot plate test; test: Hot plate test for antinociception (55° C.); format: in vivo; conditions: 0.02 mg/kg oral, 90 min before test
# Description: In the hot plate test for analgesia an aluminum surface was maintained at 55±1° C. by circulating water through passages in the metal. A clear plastic cylinder 18 cm in diameter and 26 cm high was placed on the surface to prevent escape. The end point was taken when the mouse either performed a hind paw lick or jumped off the surface; in no case were the animals kept for more than 30 secs on the plate. Mice were never used more than one time; control values were always measured at 11 a.m. and test values at 2 p.m. The drugs were administered orally 90 min before the hot plate test. The percent change in response time (latency) was calculated by comparing the mean of the control values with the mean of the test values and statistical signficance determined by a paired tetest analysis using software (Statview, 512) from Brainpower, Inc., Calabasas, Calif.
# [2] = tested on: Picrotoxin induced lethality; test: Protection against picrotoxin induced lethality; format: in vivo, Balb/c male mice; conditions: mice; result in words
# Description: (§1) The present compounds are active in several tests generally used to indicate neuroprotection.
# (§2) Balb/c male mice were administered with the drug 90 min before treatment with NMDA (125 mq/kg) or 120 min before picrotoxin (8 mg/kg) in emulsion, s.c. The survival rate shown in Table VI indicates number of survivors out of total number of animals used.
# [3] = tested on: strychnine induced lethality; test: Protection against strychnine induced lethality; format: in vivo; conditions: rats; result in words
# Source text: as §1
# [4] = tested on: forebrain ischemia; test: Protection against forebrain ischemia (unilateral occlusion); format: in vivo; conditions: mongolian gerbils, result in words
# Source text: as §1
# [5] = tested on: NMDA receptor; test: NMDA-blocking response in Xenopus oocytes injected with rat brain RNA; format: cell-based; conditions: upon return to ND 96 solution
# Source text: The oocyte is the most widely used system for studying the molecular, biophysical. and pharmacological properties of expressed voltage- or transmitter-operated ion channels. This giant cell offers several advantages for this type of studies. It can be readily used for two-electrode voltage clamp studies, translates injected mRNA from different sources and functionally expresses the translated proteins, and it is also readily amenable for intracellular microinjections. Importantly, the recordings of transmitter or voltage-induced currents in a single oocyte are extremely stable and can be done, without rundown, for 2-3 hours; this allows the performance of a full dose-response relation in single oocytes.
# Neuronal receptors for excitatory amino acid (EAA) are becoming increasingly important for the understanding of normal and pathological brain function. Quantitative pharmacological studies of EAA receptor/ion channel. complex are difficult to study in neurons. Therefore, Xenopus oocyte injected with brain MRNA is now the preparation of choice.
# The response to N-methyl-D-aspartate (NMDA) in oocytes injected with rat brain mRNA was characterized and the effects of HU-245 were studied.
# Female Xenopus were anesthetized by immersion in water containing 0.15% tricaine methanesulfonate and a small incision was made in the lower abdomen. Ovary fragments were removed into ND-96. […]
# [6] = Solubility; format: physicochemical; conditions: result in words
# [7] = tested on: cataleptic response; test: Cataleptic effects, ring test; format: in vivo, mouse; conditions: 5 min test period, ± SD
# Description: The lack of CNS activity for the compounds described herein may be seen from the data shown in Table V. This was measured by the so-called "ring test" [Pertwee, R. G., et al., J. Pharmacol., 46, 753 (1972)] in which the cataleptic effects of cannabinoids can be quantitated. The compounds produced little or no response when compared with the parent drug.
# The cataleptic response was measured using the ring test. Mice were placed on a horizontal wire ring 5.5 cm in diameter, which was attached to a 16 cm vertical rod. The hind paws and fore paws were placed at opposite sides of the ring. It is important that the ambient temperature is maintained at 30° C. and that the environment be free of auditory stimuli and bright lights. The criteria for immobility are detailed by Pertwee. The response is calculated as the fraction of time the mouse is immobile over a 5 min. test period. Measurements were always done between 2 and 4 p.m. and the animals were used only once.
# [8] = tested on: intraocular pressure; test: Reduction of intraocular pressure (anti-glaucoma); format: in vivo, rabbits; conditions: 50 μl drop of a 1% emulsion into rabbit eye
# Description: Reduction of intraocular pressure in rabbits was determined by the addition of a 50 μl drop of a 1% emulsion of the cannabinoid into the rabbit eye. This test is a measure of anti-glaucoma activity.
# [9] = tested on: N-methyl-D-aspartate (NMDA) induced lethality; test: Protection against NMDA induced lethality; format: in vivo, Balb/c male mice; conditions: mice; result in words
# Description: as §1, §2
# [10] = tested on: peritoneal leukocytes; test: Leukocyte adhesion assay (peritoneal cells after oral dosing); format: in vivo, female CD-1 mice; conditions: cells collected 90 min after dosing; for number of adhering cells: ± S.D
# Description: Leukocytes are thought to be major contributors to the inflammatory response and their ability in this regard is reflected by their adhesiveness to a variety of substrates [Audette, C. A., et al., ibid.] Sci., 47, 753 (1990)].
# The details of the leukocytes adhesion assay have been previously reported [Audette et al., ibid.]. In brief, peritoneal cells from female CD-1 mice (20-25 g) were collected at 90 min following oral administration of the drug or vehicle (50 μl peanut oil). Cells from each treatment group (N=3) were pooled and equal numbers aliquoted into six culture dish wells (1.9 cm^2 area). After incubation for 18-20 hours, non-adhering cells were removed and the remaining cell monolayer quantitated by DNA measurement.
compound,measurement,setting,value
"CCCCCCC(C)(C)c1cc(OC(C)=O)c2c(c1)OC(C)(C)[C@H]1CC=C(C(=O)O)C[C@H]21 [HU-245, (3S, 4S) -THC-DMH-7-oic acid, acetate]",percent change in latency,[1],10.7%
same,blocking of picrotoxin induced lethality,[2],blocker
same,protection against strychnine induced lethality,[3],protects against strychnine induced lethality
same,protection against forebrain ischemia,[4],shown to protect against forebrain ischemia
same,reversibility of effect on NMDA response,[5],reversible
same,solubility compared with prior art compounds,[6],higher than that of prior art compounds
same,cataleptic response (fraction of time immobile),[7]; 0.5 mg/kg,6.8 ± 2.4
same,cataleptic response (fraction of time immobile),[7]; 1.0 mg/kg,12.0 ± 6.0
same,reduction of intraocular pressure,[8],Significant reduction
same,blocking of NMDA induced lethality,[9],blocker
same,"adhering cells, percent of control",[10]; 0.10 mg/kg oral,124% of control
same,number of adhering cells,[10]; 0.10 mg/kg oral,0.66 ± 0.08 number of adhering cells × 10^-6
same,number of adhering cells,[10]; 0.50 mg/kg oral,0.85 ± 0.08 number of adhering cells × 10^-6
same,number of adhering cells,[10]; 1.00 mg/kg oral,0.30 ± 0.04 number of adhering cells × 10^-6
